Results on four compounds are retold here after patent US7279099B2, “Sludge treatment process” (FKOS, LLC, priority 2004, dated 2007).

One series has as its system bacteria. In words: Disinfection of biosolids with chlorine dioxide: bacteria.
The next series has as its system viruses. Kind of series: Disinfection of biosolids with chlorine dioxide: viruses.
The subject of series [1] is Ascaris eggs. In words: Disinfection of biosolids with chlorine dioxide alone: Ascaris eggs. To be noted: concentrations as high as 1000 ppm.
Series [2] concerns Ascaris eggs. To be noted: for Time to PFRP: closed system.
Another series relates to Ascaris. Particulars: biosolids, closed system; cited from earlier work.
The conditions of series [3]: 1500 mg/L.
In a further series the test system is C. perfringens spores. To be noted: only ozone used; cited from earlier work.
In another series the test system is poliovirus. To be noted: ozone at 20–30 mg/L at pH 3.0 for at least two hours; cited from earlier work.
The test system of another series is Fecal coliform. To be noted: ozone at 20–30 mg/L at pH 3.0 for at least two hours; cited from earlier work.
For series [4] the following is noted: 24 h, 500 mg/L.

Like-named read-outs stand apart in the source and are kept apart here.

Turning to `[O][Cl+][O-]` [chlorine dioxide], the inactivation of bacteria result in the series with bacteria is on record as “capable of inactivating”. In the series with viruses, the inactivation of viruses result is on record as “capable of inactivating”. In the series on Ascaris eggs [1], the “inactivation of Ascaris eggs” value was “not able to inactivate”.

`O=NO` [nitrous acid]: the “remaining HNO2 dose for PFRP to be reached in two hours” value with Ascaris eggs [2] (predicted using Equation 2) is “at least 25.46 mg/g”. The “concentration capable of Ascaris inactivation” value in the series with Ascaris is reported as “above 400 mg/L”. In addition, the remaining nitrous acid entry in series [3] is “below 500 mg/L”.

Take `O=[O+][O-]` [ozone]: the “inactivation of C. perfringens spores” value in the series on C. perfringens spores is “not effective”. In the series on poliovirus, the inactivation of poliovirus result is “at least 90%”. Besides, the Fecal coliform reduction result with Fecal coliform was “reduced to a non-detectable level”.

As to `O=NO` [sodium nitrite], the “Time to PFRP” value was determined as 12 h with Ascaris eggs [2] (TSS 3.02 %, initial NO2 dose 697 mg/L); 2 h with Ascaris eggs [2] (TSS 3.02 %, initial NO2 dose 1046 mg/L); 2 h in the series with Ascaris eggs [2] (TSS 5.54 %, initial NO2 dose 1754 mg/L); 2 h in the series on Ascaris eggs [2] (TSS 5.54 %, initial NO2 dose 2573 mg/L). Also, the “Average [NO2] Remaining” value reads like this: (697 mg/L) 340 mg/L; (1046 mg/L) 490 mg/L; (1754 mg/L) 1150 mg/L; (2573 mg/L) 1580 mg/L. For the same compound, the “remaining sodium nitrite level” value in [4] lay within 150 to 250 mg/L.
